pIC50: −log10 of the molar value.

In this experiment the target is T1, human TLR8 (Homo sapiens, UniProt Q9NR97).
T1 construct: host or cells: HEK293 (HEK-Blue hTLR8)
T1 sequence (Q9NR97 27-1041): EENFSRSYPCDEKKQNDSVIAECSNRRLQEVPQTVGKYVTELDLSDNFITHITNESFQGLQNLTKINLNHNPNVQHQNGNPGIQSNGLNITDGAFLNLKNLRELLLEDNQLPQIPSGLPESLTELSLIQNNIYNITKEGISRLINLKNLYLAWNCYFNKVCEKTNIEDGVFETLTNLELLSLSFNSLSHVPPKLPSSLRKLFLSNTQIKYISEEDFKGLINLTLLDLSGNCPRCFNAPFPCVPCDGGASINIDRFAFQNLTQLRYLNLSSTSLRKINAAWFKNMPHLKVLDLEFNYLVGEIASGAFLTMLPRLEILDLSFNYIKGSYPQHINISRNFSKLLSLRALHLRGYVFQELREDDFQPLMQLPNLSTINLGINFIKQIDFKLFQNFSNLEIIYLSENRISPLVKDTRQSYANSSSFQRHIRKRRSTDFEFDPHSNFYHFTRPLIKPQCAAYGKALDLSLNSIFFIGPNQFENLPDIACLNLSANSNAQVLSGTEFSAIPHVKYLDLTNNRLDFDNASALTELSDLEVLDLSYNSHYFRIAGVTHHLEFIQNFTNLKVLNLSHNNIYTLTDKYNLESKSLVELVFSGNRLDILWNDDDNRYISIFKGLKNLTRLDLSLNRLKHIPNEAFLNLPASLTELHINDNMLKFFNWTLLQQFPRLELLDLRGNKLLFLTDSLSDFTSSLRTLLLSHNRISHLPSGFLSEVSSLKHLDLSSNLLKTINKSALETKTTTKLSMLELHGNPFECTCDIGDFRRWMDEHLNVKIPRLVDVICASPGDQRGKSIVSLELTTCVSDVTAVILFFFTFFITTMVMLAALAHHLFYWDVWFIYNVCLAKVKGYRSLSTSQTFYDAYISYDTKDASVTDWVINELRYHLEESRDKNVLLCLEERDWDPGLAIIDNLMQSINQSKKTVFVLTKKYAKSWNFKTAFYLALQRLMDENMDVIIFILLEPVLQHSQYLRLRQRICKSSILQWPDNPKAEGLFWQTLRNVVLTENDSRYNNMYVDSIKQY
As to the kind of experiment: HEK293-Blue-hTLR-8 cells assay (SEAP reporter, R848 stimulation). In kind it is cell-based. Particulars: HEK293-Blue-hTLR8 cells, R848, 20 hrs; read-out: HEK/hTLR8 IC50. An excerpt: HEK293-Blue-hTLR-8 Cells Assay:
A stable HEK293-Blue-hTLR-8 cell line was purchased from InvivoGen (Cat. #: hkb-ht1r8, San Diego, Calif., USA). These cells were originally designed for studying the stimulation of human TLR8 by monitoring the activation of NF-κB. A SEAP (secreted embryonic alkaline phosphatase) reporter gene was placed under the control of the IFN-β minimal promoter fused to five NF-κB and AP-1-binding sites. The SEAP was induced by activating NF-κB and AP-1 via stimulating HEK-Blue hTLR8 cells with TLR8 ligands. Therefore the reporter expression was declined by TLR8 antagonist under the stimulation of a ligand, such as R848, for incubation of 20 hrs. The cell culture supernatant SEAP reporter activity was determined using QUANTI-Blue™ kit (Cat. #: rep-qb1, Invivogen, San Diego, Ca, USA) at a wavelength of 640 nm, a detection medium that turns purple or blue in the presence of alkaline phosphatase.
HEK293-Blue-hTLR8 cells were incubated at a density of 250,000˜450,000 cells/mL in a volume of 170 μL in a 96-well plate in Dulbecco's Modified Eagle's medium (DMEM) containing 4.5 g/L glucose, 50 U/mL penicillin, […], […], 2 mM L-glutamine, 10% (v/v) heat-inactivated fetal bovine serum with addition of 20 μL test compound in a serial dilution in the presence of final DMSO at 1% and 10 μL of 60 uM R848 in above DMEM, perform incubation under 37° C. in a CO2 incubator for 20 hrs. Then 20 μL of the supernatant from each well was incubated with 180 μL Quanti-blue substrate solution at 37° C. for 2 hrs and the absorbance was read at 620˜655 nm using a spectrophotometer. The signaling pathway that TLR8 activation leads to downstream NF-κB activation has been widely accepted, and therefore similar reporter assay was modified for evaluating TLR8 antagonist.
With `C[C@@H]1CN(c2ccc(C#N)n3nccc23)C[C@H](CN2CC(c3ccc(N4CC(C)(N)C4)nc3)C2)O1` [Example 157, 4-[(2S,6R)-2-[[3-[6-(3-amino-3-methyl-azetidin-1-yl)-3-pyridyl]azetidin-1-yl]methyl]-6-methyl-morpholin-4-yl]pyrazolo[1,5-a]pyridine-7-carbonitrile], the pIC50 is 6.93.
With `[2H]c1ccc2c(N3C[C@H](CN4CCN(c5cccc(N6CC(C)(N)C6)n5)CC4)O[C@H](C)C3)ccc(C#N)c2n1` [Example 155, 5-[(2S,6R)-2-[[4-[6-(3-amino-3-methyl-azetidin-1-yl)-2-pyridyl]piperazin-1-yl]methyl]-6-methyl-morpholin-4-yl]-2-deuterio-quinoline-8-carbonitrile], the pIC50 is 8.10.
For the compound `CO[C@@H]1CN(c2nccc(N3CCN(C[C@H]4CN(c5ccc(C#N)c6nccnc56)C[C@@H](C)O4)CC3)n2)C[C@H]1N` [Example 98, 8-[(2S,6R)-2-[[4-[2-[(3R,4R)-3-amino-4-methoxy-pyrrolidin-1-yl]pyrimidin-4-yl]piperazin-1-yl]methyl]-6-methyl-morpholin-4-yl]quinoxaline-5-carbonitrile], the pIC50 was 9.00.
In the case of `Cc1ccc(N2C[C@H](CN3CCN(c4ccnc(N5C[C@H]6NCCO[C@@H]6C5)n4)CC3)O[C@H](C)C2)c2nccnc12` [Example 129, (4aR,7aR)-6-[4-[4-[[(2S,6R)-6-methyl-4-(8-methylquinoxalin-5-yl)morpholin-2-yl]methyl]piperazin-1-yl]pyrimidin-2-yl]-3,4,4a,5,7,7a-hexahydro-2H-pyrrolo[3,4-b][1,4]oxazine] it was 8.15; in that of `[2H]c1ccc2c(N3C[C@H](CN4CC(c5cnc(N6C[C@@H](N)[C@H](OC)C6)cc5C)C4)O[C@H](C)C3)ccc(C#N)c2n1` [Example 146, 5-[(2S,6R)-2-[[3-[6-[(3R,4R)-3-amino-4-methoxy-pyrrolidin-1-yl]-4-methyl-3-pyridyl]azetidin-1-yl]methyl]-6-methyl-morpholin-4-yl]-2-deuterio-quinoline-8-carbonitrile], 7.85.
In the case of `[2H]c1ccc2c(N3C[C@H](CN4CCN(c5nc(C)cc(N6CC(N)C6)n5)CC4)O[C@H](C)C3)ccc(C#N)c2n1` [Example 136, 5-[(2S,6R)-2-[[4-[4-(3-aminoazetidin-1-yl)-6-methyl-pyrimidin-2-yl]piperazin-1-yl]methyl]-6-methyl-morpholin-4-yl]-2-deuterio-quinoline-8-carbonitrile] it was 9.00.
For `[2H]c1ccc2c(N3C[C@H](CN4CC(O)(c5ccc(N6CC(C)(N)C6)cc5)C4)O[C@H](C)C3)ccc(C#N)c2n1` [Example 156, 5-[(2S,6R)-2-[[3-[4-(3-amino-3-methyl-azetidin-1-yl)phenyl]-3-hydroxy-azetidin-1-yl]methyl]-6-methyl-morpholin-4-yl]-2-deuterio-quinoline-8-carbonitrile] the value was 7.62.
As to `C[C@@H]1CN(c2ccc(C#N)c3ncccc23)C[C@H](CN2CCN(c3ccnc(N4C[C@@H](N)[C@H](F)C4)n3)CC2)O1` [Example 96, 5-[(2S,6R)-2-[[4-[2-[(3R,4R)-3-amino-4-fluoro-pyrrolidin-1-yl]pyrimidin-4-yl]piperazin-1-yl]methyl]-6-methyl-morpholin-4-yl]quinoline-8-carbonitrile], the pIC50 was 8.40.
For `CO[C@@H]1CN(c2nccc(N3CCN(C[C@H]4CN(c5ccc(C#N)c6ncccc56)C[C@@H](C)O4)CC3)n2)C[C@@H]1N` [Example 92, 5-[(2S,6R)-2-[[4-[2-[(3S,4R)-3-amino-4-methoxy-pyrrolidin-1-yl]pyrimidin-4-yl]piperazin-1-yl]methyl]-6-methyl-morpholin-4-yl]quinoline-8-carbonitrile] the value was 8.70.
For `COC1CCN(c2nccc(N3CCN(C[C@H]4CN(c5ccc(C#N)c6ncccc56)C[C@@H](C)O4)CC3)n2)CC1N` (stereo partly drawn) [Example 109, 5-[(2S,6R)-2-[[4-[2-(3-amino-4-methoxy-1-piperidyl)pyrimidin-4-yl]piperazin-1-yl]methyl]-6-methyl-morpholin-4-yl]quinoline-8-carbonitrile], the pIC50 is 8.70.
For `[2H]c1ccc2c(N3C[C@H](CN4CC(c5ccc(N6C[C@H](OC)[C@@H](N)C6)cc5)C4)O[C@H](C)C3)ccc(C#N)c2n1` [Example 140, 5-[(2S,6R)-2-[[3-[4-[(3S,4S)-3-amino-4-methoxy-pyrrolidin-1-yl]phenyl]azetidin-1-yl]methyl]-6-methyl-morpholin-4-yl]-2-deuterio-quinoline-8-carbonitrile] the value was 7.60.
Take `Cc1cc(N2CC(C)(N)C2)cnc1N1CCN(C[C@H]2CN(c3ccc(C#N)n4ncc(F)c34)C[C@@H](C)O2)CC1` [Example 148, 4-[(2S,6R)-2-[[4-[5-(3-amino-3-methyl-azetidin-1-yl)-3-methyl-2-pyridyl]piperazin-1-yl]methyl]-6-methyl-morpholin-4-yl]-3-fluoro-pyrazolo[1,5-a]pyridine-7-carbonitrile]: the pIC50 is 7.31.
In the case of `[2H]c1ccc2c(N3C[C@H](CN4CCN(c5ncc(N6C[C@@H](N)[C@H](OC)C6)cc5C)CC4)O[C@H](C)C3)ccc(C#N)c2n1` [Example 142, 5-[(2S,6R)-2-[[4-[5-[(3R,4R)-3-amino-4-methoxy-pyrrolidin-1-yl]-3-methyl-2-pyridyl]piperazin-1-yl]methyl]-6-methyl-morpholin-4-yl]-2-deuterio-quinoline-8-carbonitrile] it was 7.77; in that of `Cc1ccc(N2C[C@H](CN3CCN(c4ccnc(N5CC(N)C5)n4)CC3)O[C@H](C)C2)c2nccnc12` [Example 130, 1-[4-[4-[[(2S,6R)-6-methyl-4-(8-methylquinoxalin-5-yl)morpholin-2-yl]methyl]piperazin-1-yl]pyrimidin-2-yl]azetidin-3-amine], 8.10; in that of `C[C@@H]1CN(c2ccc(C#N)c3ncccc23)C[C@H](CN2CCN(c3cnc(N4CCNCC4)cn3)CC2)O1` [Example 6, 5-[(2R,6S)-2-methyl-6-[[4-(5-piperazin-1-ylpyrazin-2-yl)piperazin-1-yl]methyl]morpholin-4-yl]quinoline-8-carbonitrile], 8.15.
For `[2H]c1ccc2c(N3C[C@H](CN4CC(c5ccc(N6CC(C)(N)C6)cc5)C4)O[C@H](C)C3)ccc(C#N)c2n1` [Example 141, 5-[(2S,6R)-2-[[3-[4-(3-amino-3-methyl-azetidin-1-yl)phenyl]azetidin-1-yl]methyl]-6-methyl-morpholin-4-yl]-2-deuterio-quinoline-8-carbonitrile] the value was 8.05; for `[2H]c1ccc2c(N3C[C@H](CN4CCN(c5ccc(N6CC(C)(N)C6)c(C)n5)CC4)O[C@H](C)C3)ccc(C#N)c2n1` [Example 147, 5-[(2S,6R)-2-[[4-[5-(3-amino-3-methyl-azetidin-1-yl)-6-methyl-2-pyridyl]piperazin-1-yl]methyl]-6-methyl-morpholin-4-yl]-2-deuterio-quinoline-8-carbonitrile], 7.96; for `[2H]c1ccc2c(N3C[C@H](CN4CCN(c5ccc(N6CC7(CN(C)C7)C6)nc5)CC4)O[C@H](C)C3)ccc(C#N)c2n1` [Example 161, 2-deuterio-5-[(2R,6S)-2-methyl-6-[[4-[6-(6-methyl-2,6-diazaspiro[3.3]heptan-2-yl)-3-pyridyl]piperazin-1-yl]methyl]morpholin-4-yl]quinoline-8-carbonitrile], 8.10.

(Values after patent US20210395239A1 (Hoffmann-La Roche Inc., priority 2018, published 2021).)
